# Results from PubChem BioAssay (NCI).
# Values joined by “and” are separate entries in the source; they are usually repeats but may differ in a detail not shown here. Identical values can stand only once.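 At the GI50, growth is halved. TGI marks complete inhibition of growth.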
# Columns and labels:
# Assay in all cases: NCI tumour cell line growth inhibition, 384-well format
# [1] = tested on: 786-0 renal
# [2] = tested on: A498 renal
# [3] = tested on: A549 NSCLC
# [4] = tested on: ACHN renal
# [5] = tested on: BT-549 breast
# [6] = tested on: CAKI-1 renal
# [7] = tested on: CCRF-CEM leukemia
# [8] = tested on: COLO 205 colon
# [9] = tested on: DU-145 prostate
# [10] = tested on: EKVX NSCLC
# [11] = tested on: HCC-2998 colon
# [12] = tested on: HCT-116 colon
# [13] = tested on: HCT-15 colon
# [14] = tested on: HL-60(TB) leukemia
# [15] = tested on: HOP-62 NSCLC
# [16] = tested on: HOP-92 NSCLC
# [17] = tested on: HS 578T breast
# [18] = tested on: HT29 colon
# [19] = tested on: IGROV1 ovarian
# [20] = tested on: K-562 leukemia
# [21] = tested on: KM12 colon
# [22] = tested on: LOX IMVI melanoma
# [23] = tested on: M14 melanoma
# [24] = tested on: MALME-3M melanoma
# [25] = tested on: MCF7 breast
# [26] = tested on: MDA-MB-231 breast
# [27] = tested on: MDA-MB-435 melanoma
# [28] = tested on: MDA-MB-468 breast
# [29] = tested on: MOLT-4 leukemia
# [30] = tested on: NCI-H226 lung
# [31] = tested on: NCI-H23 lung
# [32] = tested on: NCI-H322M lung
# [33] = tested on: NCI-H460 NSCLC
# [34] = tested on: NCI-H522 lung
# [35] = tested on: NCI/ADR-RES ovarian
# [36] = tested on: OVCAR-3 ovarian
# [37] = tested on: OVCAR-4 ovarian
# [38] = tested on: OVCAR-5 ovarian
# [39] = tested on: OVCAR-8 ovarian
# [40] = tested on: PC-3 prostate
# [41] = tested on: RPMI-8226 leukemia
# [42] = tested on: RXF 393 renal
# [43] = tested on: SF-268 CNS
# [44] = tested on: SF-295 CNS
# [45] = tested on: SF-539 CNS
# [46] = tested on: SK-MEL-2 melanoma
# [47] = tested on: SK-MEL-28 melanoma
# [48] = tested on: SK-MEL-5 melanoma
# [49] = tested on: SK-OV-3 ovarian
# [50] = tested on: SN12C renal
# [51] = tested on: SNB-19 CNS
# [52] = tested on: SNB-75 CNS
# [53] = tested on: SR leukemia
# [54] = tested on: SW-620 colon
# [55] = tested on: T-47D breast
# [56] = tested on: TK-10 renal
# [57] = tested on: U251 glioblastoma
# [58] = tested on: UACC-257 melanoma
# [59] = tested on: UACC-62 melanoma
# [60] = tested on: UO-31 renal
smiles,measurement,setting,value
O=C(/C=C\n1cnc(-c2cc(C(F)(F)F)cc(C(F)(F)F)c2)n1)NNc1cnccn1,GI50,[1],59.8 nM
same,TGI,[1],3310 nM
same,GI50,[2],72.8 nM
same,TGI,[2],1540 nM
same,GI50,[3],109 nM
same,TGI,[3],5620 nM
same,GI50,[4],250 nM
same,TGI,[4],5390 nM
same,GI50,[5],19.9 nM
same,TGI,[5],62.1 nM
same,GI50,[6],99.7 nM
same,TGI,[6],13100 nM
same,GI50,[7],91 nM
same,TGI,[7],390 nM
same,GI50,[8],84.2 nM
same,TGI,[8],4600 nM
same,GI50,[9],274 nM
same,TGI,[9],1220 nM
same,GI50,[10],1340 nM
same,TGI,[10],13100 nM
same,GI50,[11],46.3 nM
same,TGI,[11],530 nM
same,GI50,[12],60.8 nM
same,TGI,[12],504 nM
same,GI50,[13],152 nM
same,TGI,[13],1310 nM
same,GI50,[14],41 nM
same,TGI,[14],185 nM
same,GI50,[15],166 nM
same,TGI,[15],1170 nM
same,GI50,[16],194 nM
same,TGI,[16],4360 nM
same,GI50,[17],41.1 nM
same,TGI,[17],281 nM
same,GI50,[18],213 nM
same,TGI,[18],6540 nM
same,GI50,[19],424 nM
same,TGI,[19],7510 nM
same,GI50,[20],41.7 nM
same,TGI,[20],289 nM
same,GI50,[21],442 nM
same,TGI,[21],3860 nM
same,GI50,[22],144 nM
same,TGI,[22],555 nM
same,GI50,[23],353 nM
same,TGI,[23],1670 nM
same,GI50,[24],142 nM
same,TGI,[24],1170 nM
same,GI50,[25],58 nM
same,TGI,[25],2150 nM
same,GI50,[26],51.7 nM
same,TGI,[26],244 nM
same,GI50,[27],177 nM
same,TGI,[27],721 nM
same,GI50,[28],90.3 nM
same,TGI,[28],249 nM
same,GI50,[29],16.3 nM
same,TGI,[29],31.1 nM
same,GI50,[30],33.8 nM
same,TGI,[30],858 nM
same,GI50,[31],54.8 nM
same,TGI,[31],889 nM
same,GI50,[32],213 nM
same,TGI,[32],5260 nM
same,GI50,[33],48.3 nM
same,TGI,[33],337 nM
same,GI50,[34],61.1 nM
same,TGI,[34],304 nM
same,GI50,[35],89.1 nM
same,TGI,[35],1570 nM
same,GI50,[36],57.6 nM
same,TGI,[36],463 nM
same,GI50,[37],316 nM
same,TGI,[37],1040 nM
same,GI50,[38],342 nM
same,TGI,[38],9930 nM
same,GI50,[39],70.6 nM
same,TGI,[39],936 nM
same,GI50,[40],57.6 nM
same,TGI,[40],999 nM
same,GI50,[41],19.6 nM
same,TGI,[41],64.9 nM
same,GI50,[42],21.6 nM
same,TGI,[42],82.7 nM
same,GI50,[43],40.7 nM
same,TGI,[43],310 nM
same,GI50,[44],86 nM
same,TGI,[44],1050 nM
same,GI50,[45],26.2 nM
same,TGI,[45],86 nM
same,GI50,[46],119 nM
same,TGI,[46],282 nM
same,GI50,[47],192 nM
same,TGI,[47],1380 nM
same,GI50,[48],143 nM
same,TGI,[48],675 nM
same,GI50,[49],919 nM
same,TGI,[49],13600 nM
same,GI50,[50],655 nM
same,TGI,[50],5870 nM
same,GI50,[51],451 nM
same,TGI,[51],8540 nM
same,GI50,[52],77 nM
same,TGI,[52],422 nM
same,GI50,[53],13.7 nM
same,TGI,[53],29.8 nM
same,GI50,[54],81.8 nM
same,TGI,[54],7100 nM
same,GI50,[55],165 nM
same,TGI,[55],4110 nM
same,GI50,[56],126 nM
same,TGI,[56],13200 nM
same,GI50,[57],88.9 nM
same,TGI,[57],816 nM
same,GI50,[58],977 nM
same,TGI,[58],8460 nM
same,GI50,[59],106 nM
same,TGI,[59],418 nM
same,GI50,[60],466 nM
same,TGI,[60],4410 nM
Nc1ncn(C2CC(O)C(CO)O2)c(=O)n1 (configuration not stated),GI50,[4],7840 nM
same,GI50,[7],706 nM
same,GI50,[8],65600 nM
same,GI50,[13],> 31200 nM
same,GI50,[14],629 nM
same,GI50,[20],1280 nM
same,GI50,[28],< 18.3 nM
same,TGI,[28],53.2 nM
same,GI50,[29],39.7 nM
same,GI50,[33],1980 nM
same,GI50,[39],> 32900 nM
same,GI50,[41],225 nM
same,GI50,[48],705 nM
same,GI50,[53],2920 nM
CON(C)C(=O)N1N=C(c2cc(F)ccc2F)SC1(CCCN)c1ccccc1 (configuration not stated),GI50,[2],< 10 nM
same,TGI,[2],14500 nM and 13200 nM
same,GI50,[3],< 10 nM
same,TGI,[3],18600 nM and 18700 nM
same,GI50,[4],11200 nM and 1630 nM
same,TGI,[4],23300 nM and 19600 nM
same,GI50,[5],< 10 nM
same,TGI,[5],11900 nM and 11100 nM
same,GI50,[6],2260 nM and 2080 nM
same,TGI,[6],19200 nM and 19300 nM
same,GI50,[8],< 10 nM
same,TGI,[8],< 10 nM
same,GI50,[9],< 10 nM
same,TGI,[9],< 10 nM
same,GI50,[10],< 10 nM
same,TGI,[10],15600 nM and 14800 nM
same,GI50,[11],< 10 nM
same,TGI,[11],< 10 nM
same,GI50,[12],< 10 nM
same,TGI,[12],11200 nM and 11400 nM
same,GI50,[13],< 10 nM
same,TGI,[13],11700 nM
same,GI50,[14],< 10 nM
same,TGI,[14],< 10 nM
same,GI50,[15],< 10 nM
same,TGI,[15],14500 nM and 13800 nM
same,GI50,[16],10100 nM and 8950 nM
same,TGI,[16],21800 nM and 21600 nM
same,GI50,[17],< 10 nM
same,TGI,[17],< 10 nM
same,GI50,[18],< 10 nM
same,TGI,[18],1150 nM and 1310 nM
same,GI50,[19],1840 nM and 1130 nM
same,TGI,[19],18800 nM and 14700 nM
same,GI50,[21],< 10 nM
same,TGI,[21],12100 nM and 11900 nM
same,GI50,[22],< 10 nM
same,TGI,[22],10500 nM and 11100 nM
same,GI50,[23],< 10 nM
same,TGI,[23],< 10 nM
same,GI50,[24],1190 nM and 1260 nM
same,TGI,[24],3530 nM and 11800 nM
same,GI50,[25],< 10 nM
same,TGI,[25],11900 nM and 12100 nM
same,GI50,[26],< 10 nM
same,TGI,[26],13800 nM and 15400 nM
same,GI50,[27],< 10 nM
same,TGI,[27],< 10 nM
same,GI50,[28],< 10 nM
same,TGI,[28],< 10 nM
same,GI50,[29],< 10 nM
same,TGI,[29],< 10 nM
same,GI50,[30],10200 nM and 2240 nM
same,TGI,[30],22000 nM and 16900 nM
same,GI50,[31],< 10 nM
same,TGI,[31],12700 nM and 11500 nM
same,GI50,[32],< 10 nM
same,TGI,[32],17200 nM and 14900 nM
same,GI50,[33],< 10 nM
same,TGI,[33],< 10 nM
same,GI50,[34],< 10 nM
same,TGI,[34],< 10 nM
same,GI50,[35],116 nM and 17.5 nM
same,TGI,[35],270 nM and 137 nM
same,GI50,[36],< 10 nM
same,TGI,[36],< 10 nM
same,GI50,[37],< 10 nM
same,TGI,[37],14000 nM and 12600 nM
same,GI50,[38],10.6 nM and < 10 nM
same,TGI,[38],84.2 nM and < 10 nM
same,GI50,[39],< 10 nM
same,TGI,[39],14500 nM and 13400 nM
same,GI50,[40],< 10 nM
same,TGI,[40],15300 nM and 12800 nM
same,GI50,[41],< 10 nM
same,TGI,[41],< 10 nM
same,GI50,[42],< 10 nM
same,TGI,[42],17900 nM and 17800 nM
same,GI50,[43],< 10 nM
same,TGI,[43],15700 nM and 15300 nM
same,GI50,[44],< 10 nM
same,TGI,[44],12800 nM and 13100 nM
same,GI50,[45],< 10 nM
same,TGI,[45],10200 nM
same,GI50,[47],2380 nM and 11600 nM
same,TGI,[47],19600 nM and 24000 nM
same,GI50,[48],< 10 nM
same,TGI,[48],< 10 nM
same,GI50,[49],< 10 nM
same,TGI,[49],12200 nM and 11900 nM
same,GI50,[50],< 10 nM
same,TGI,[50],14700 nM and 16600 nM
same,GI50,[51],< 10 nM
same,TGI,[51],11700 nM and 7120 nM
same,GI50,[52],< 10 nM
same,TGI,[52],16000 nM and 15900 nM
same,GI50,[53],< 10 nM
same,TGI,[53],< 10 nM
same,GI50,[55],13.8 nM and < 10 nM
same,TGI,[55],18300 nM and 18100 nM
same,GI50,[56],11.7 nM
same,TGI,[56],17400 nM
same,GI50,[57],< 10 nM
same,TGI,[57],10900 nM and 11200 nM
same,GI50,[58],< 10 nM
same,TGI,[58],2290 nM and 2470 nM
same,GI50,[59],< 10 nM
same,TGI,[59],16400 nM and 16100 nM
